In patent US20080206761A1, “Ex Vivo Gene Expression in Whole Blood as a Model of Assessment of Individual Variation to Dietary Supplements” (priority 2005, published 2008):

Experiments:
Format in all cases: cell-based, human
[1] = system: CD32A mRNA (IgG Fc receptor); assay: CD32A mRNA level in leukocytes after exposure of whole blood to dietary components (no stimulating agent); settings: one individual; 3 hours at 37° C.; PBS control
Protocol: In brief, home-made 96-well filterplates were placed over collection plates, and 150 μl 5 mM Tris, pH 7.4, was applied. Following centrifugation at 120×g for 1 min at 4° C., 50 μl of blood samples were applied to each well and immediately centrifuged at 120×g for 2 min at 4° C., followed by washing of each well with 300 μl PBS once with centrifugation at 2000×g for 5 min at 4° C. […] The filterplates were then placed over oligo(dT)-immobilized microplates (GenePlate, RNAture), and centrifuged at 2000×g for 5 min at 4° C. Following overnight storage at 4° C., the microplates were washed with 100 μl plain lysis buffer 3 times, followed by 150 μl of wash buffer (0.5 M NaCl, 10 mM Tris, pH 7.4, 1 mM EDTA) 3 times at 4° C. […] The specific primer-primed cDNA existed in solution, and oligo(dT)-primed cDNA stayed immobilized in the microplate. […] Each gene was amplified in separate wells. The Ct was determined by analytical software (SDS, ABI).

TNF-α mRNA = assay: PHA-induced TNF-α mRNA expression in heparinized whole blood ex vivo; settings: supplement 30 min, then 100 μg/mL PHA 2 h, concentrations per footnote
Protocol: (§1) In this embodiment, phytohemagglutinin-induced gene expression of interleukin-2 (IL-2), interleukin-4 (IL-4), and tumor necrosis factor-α (TNF-α) were quantitated in the following manner. Fifty μL of heparinized whole blood was incubated with various dietary supplements for a period of 30 minutes. The following supplements were employed: vitamins A, C, and D, epigallocatechin gallate (from green tea), genistein (from soy), and curcumin (from the spice turmeric). Vitamin A is known to stimulate the immune system. […] Vitamin D appears to have protective effects against certain cancers. Epigallocatechin gallate is a powerful antioxidant, appears to reduce the multidrug resistance found in cancer cells, and preferentially induces apoptosis in neoplastic cells. Genistein has been found in some studies to have anticarcinogenic activity; possible mechanisms of action include upregulation of apoptosis, inhibition of angiogenesis, inhibition of DNA topoisomerase II and inhibition of protein tyrosine kinases. Curcumin has proapoptotic effects in neoplastic cells and interferes with the activity of the transcription factor NF-κB, which is often highly overexpressed in such cells.
(§2) After incubation with the dietary supplement, 100 μg/mL phytohemagglutinin (PHA) was added and incubation was continued for an additional 2 hours at 37° C. The concentration of each dietary supplement (see Table I, note) was slightly higher than reported blood levels. Then mRNA was purified, cDNA was synthesized, and the levels of IL-2, IL-4, and TNF-α were quantitated by TaqMan real time polymerase chain reaction (PCR) (see Holland, et al., “Detection of specific polymerase chain reaction product by utilizing the 5′ to 3′ exonuclease activity of Thermus aquaticus DNA polymerase,” Proc Natl Acad Sci USA 1991; 88: 7276-80), as described below.
(§3) The mRNA and cDNA were prepared from the whole blood that was exposed to the dietary components, as well as the whole blood which remained unexposed. In brief, home-made 96-well filterplates were placed over collection plates, and 150 μl 5 mM Tris, pH 7.4, was applied. Following centrifugation at 120×g for 1 min at 4° C., 50 μl of blood samples were applied to each well and immediately centrifuged at 120×g for 2 min at 4° C., followed by washing of each well with 300 μl PBS once with centrifugation at 2000×g for 5 min at 4° C. Then, 60 μl stock lysis buffer, containing for example 0.5% N-Lauroylsarcosine, 4×SSC, 10 mM Tris HCl, pH 7.4, 1 mM EDTA, 0.1% IGEPAL CA-630, and 1.791 M guanidine thiocyanate, supplemented with 1% 2-mercaptoethanol (Bio Rad, Hercules, Calif., USA), 0.5 mg/ml proteinase K (Pierce, Rockford, Ill., USA), 0.1 mg/ml salmon sperm DNA (5 Prime Eppendorf/Brinkmann, Westbury, N.Y., USA), 0.1 mg/ml E. coli tRNA (Sigma), a cocktail of 10 mM each of the specific reverse primers shown in Table 2, and standard RNA34 oligonucleotides, were applied to the filterplates, followed by incubation at 37° C. for 10 min. The filterplates were then placed over oligo(dT)-immobilized microplates (GenePlate, RNAture), and centrifuged at 2000×g for 5 min at 4° C. Following overnight storage at 4° C., the microplates were washed with 100 μl plain lysis buffer 3 times, followed by 150 μl of wash buffer (0.5 M NaCl, 10 mM Tris, pH 7.4, 1 mM EDTA) 3 times at 4° C. The cDNA was directly synthesized in each well by adding 30 μl of buffer containing 1×RT-buffer, 1.25 mM each of dNTP, 4 units rRNasin, and 80 units of MMLV reverse transcriptase (Promega) (without primers), and incubation at 37° C. for 2 hours. The specific primer-primed cDNA existed in solution, and oligo(dT)-primed cDNA stayed immobilized in the microplate. […]

IL-2 mRNA = assay: PHA-induced IL-2 mRNA expression in heparinized whole blood ex vivo; settings: supplement 30 min, concentrations per footnote
Protocol: as §1, §2, §3

IL-4 mRNA = assay: PHA-induced IL-4 mRNA expression in heparinized whole blood ex vivo; settings: for ΔΔCt (mean ± standard deviation, n = 3), IL-4 mRNA: supplement 30 min, then 100 μg/mL PHA 2 h, concentrations per footnote
Protocol: as §1, §2, §3

## CCCCC/C=C\C/C=C\C/C=C\CCCCC(=O)O [γ-linoleic acid, γ-linoleic acids]
[1]
  conclusion from CD32A mRNA levels (FIG. 2), in words: would be suitable for use in this individual in a diet optimized for anti-cancer activity

## vitamin D [VD]
TNF-α mRNA; Subject 1
  ΔΔCt (mean ± standard deviation, n = 3), TNFα mRNA: −0.25 ± 1.47
TNF-α mRNA; Subject 2
  ΔΔCt (mean ± standard deviation, n = 3), TNFα mRNA: 0.14 ± 0.40
TNF-α mRNA; Subject 3
  ΔΔCt (mean ± standard deviation, n = 3), TNFα mRNA: −0.04 ± 0.27
TNF-α mRNA; Subject 4
  ΔΔCt (mean ± standard deviation, n = 3), TNFα mRNA: 0.09 ± 0.16
TNF-α mRNA; Subject 5
  ΔΔCt (mean ± standard deviation, n = 3), TNFα mRNA: −1.21 ± 0.14
TNF-α mRNA; Subject 6
  ΔΔCt (mean ± standard deviation, n = 3), TNFα mRNA: −0.48 ± 0.04
TNF-α mRNA; Subject 7
  ΔΔCt (mean ± standard deviation, n = 3), TNFα mRNA: −0.40 ± 0.15
IL-2 mRNA; Subject 1, then 100 μg/mL PHA 2 h 37° C., negative = increased expression
  ΔΔCt (mean ± standard deviation, n = 3), IL-2 mRNA: −0.13 ± 0.07
IL-2 mRNA; Subject 2, then 100 μg/mL PHA 2 h
  ΔΔCt (mean ± standard deviation, n = 3), IL-2 mRNA: 0.06 ± 0.40
IL-2 mRNA; Subject 3, then 100 μg/mL PHA 2 h
  ΔΔCt (mean ± standard deviation, n = 3), IL-2 mRNA: 0.00 ± 0.15
IL-2 mRNA; Subject 4, then 100 μg/mL PHA 2 h
  ΔΔCt (mean ± standard deviation, n = 3), IL-2 mRNA: −0.31 ± 0.30
IL-2 mRNA; Subject 5, then 100 μg/mL PHA 2 h
  ΔΔCt (mean ± standard deviation, n = 3), IL-2 mRNA: −0.45 ± 0.61
IL-2 mRNA; Subject 6, then 100 μg/mL PHA 2 h
  ΔΔCt (mean ± standard deviation, n = 3), IL-2 mRNA: −0.55 ± 0.14
IL-2 mRNA; Subject 7, then 100 μg/mL PHA 2 h
  ΔΔCt (mean ± standard deviation, n = 3), IL-2 mRNA: −0.86 ± 0.12
IL-4 mRNA; Subject 1
  ΔΔCt (mean ± standard deviation, n = 3), IL-4 mRNA: −0.17 ± 1.0
IL-4 mRNA; Subject 2
  ΔΔCt (mean ± standard deviation, n = 3), IL-4 mRNA: 0.06 ± 0.15
IL-4 mRNA; Subject 3
  ΔΔCt (mean ± standard deviation, n = 3), IL-4 mRNA: −0.77 ± 0.40
IL-4 mRNA; Subject 4
  ΔΔCt (mean ± standard deviation, n = 3), IL-4 mRNA: −0.43 ± 0.17
IL-4 mRNA; Subject 5
  ΔΔCt (mean ± standard deviation, n = 3), IL-4 mRNA: −1.22 ± 0.17
IL-4 mRNA; Subject 6
  ΔΔCt (mean ± standard deviation, n = 3), IL-4 mRNA: −0.77 ± 0.09
IL-4 mRNA; Subject 7
  ΔΔCt (mean ± standard deviation, n = 3), IL-4 mRNA: −1.30 ± 0.22
IL-4 mRNA; summary over 7 subjects of Table I
  effect on PHA-induced IL-4 expression, in words: enhanced IL-4 expression, with 1-3 exceptions
[1]
  conclusion from CD32A mRNA levels (FIG. 2), in words: would be suitable for use in this individual in a diet optimized for anti-cancer activity

## vitamin E
[1]
  conclusion from CD32A mRNA levels (FIG. 2), in words: would be suitable for use in this individual in a diet optimized for anti-cancer activity
